PMC1976386 (Molecular Microbiology, 2007)

Target: CaKip1p (Candida albicans, UniProt A0A1D8PT88)
Details: read-out: Value

Km: 7.4 ± 0.7 µM
Structure (SMILES): Nc1ncnc2c1ncn2[C@@H]1O[C@H](COP(=O)(O)OP(=O)(O)OP(=O)(O)O)[C@@H](O)[C@H]1O [ATP]
